These results are taken from US20240226310A1, “Lipid Nanoparticle Therapeutics that Evade the Immune Response” (The Trustees of the University of Pennsylvania, priority 2021, published 2024).

For the series, the system named is pro-inflammatory cytokines. The experiment in a line: Pro-inflammatory cytokines in systemic mouse model of inflammation (IV-LPS). It is filed as in vivo, mice.
[1] abbreviates: removal of macrophages, LPS-treated mice which received LNP-mRNAs.

Regarding `O=P(O)(O)C(Cl)(Cl)P(=O)(O)O` [Clodronate], the systemic pro-inflammatory cytokines/markers entry (IV treatment, LPS model of systemic inflammation) is “reduces systemic pro-inflammatory markers”. Also, under setting [1], the IL-6 in blood entry is reported as “significantly lowered” and the “MIP-2 in liver homogenate” value is “significantly lowered”.
